From US20040043959A1, “Combination therapies for treating methylthioadenosine phosphorylase deficient cells” (priority 2002, published 2004)

Experiments:
[1] = molecular target: T1, human membrane folate-binding protein (mFBP) (Homo sapiens, UniProt P15328); assay: competitive binding assay against 3H-folic acid with mFBP prepared from KB cells
T1 construct: mFBP prepared from cultured KB cells (human nasopharyngeal carcinoma cells); endogenous in cells
Source text: The dissociation constant (Kd) of the preferred inhibitors of the present invention for human membrane folate-binding protein (mFBP) can be determined in a competitive binding assay using mFBP prepared from cultured KB cells (human nasopharyngeal carcinoma cells) as disclosed in U.S. Pat. No. 5,646,141, the disclosures of which is hereby incorporated by reference in its entirety.
Human membrane folate binding protein can be obtained from KB cells by methods well known in the art. KB cells are washed, sonicated for cell lysis and centrifuged to form pelleted cells. The pellet can then be stripped of endogenous bound folate by resuspension in acidic buffer (KH2PO4—KOH and 2-mercaptoethanol) and centrifuged again. The pellet is then resuspended and the protein content quantitated using the Bradford method with bovine serum albumin (BSA) as standard.
Disassociation constants are determined by allowing, the test inhibitor to compete against ^3H-folic acid for binding to mFBP. Reaction mixtures are designed to generally contain mFBP, ^3H-folic acid, and various concentrations of the subject test inhibitor in acidic buffer (KH2PO4—KOH and 2-mercaptoethanol). The competition reaction is typically conducted at 25°. Because of the slow nature of release of bound ^3H-folic acid, the test inhibitor may be prebound prior to addition of bound ^3H-folic acid, after which the reaction should be allowed to equilibriate. The full reaction mixtures then should be drawn through nitrocellulose filters to isolate the cell membranes with bound ^3H-folic acid. The trapped mFBP are then washed and measured by scintillation counting. The data can then be nonlinearly fitted as described above in determining Ki. The mFBP Kd for ^3H-folic acid, used for calculating the competitor Kd, can be obtained by directly titrating mFBP with ^3H-folate. The mFBP Kd can then be used to calculate the competitor Kd by nonlinear fitting of the data to an equation for tight-binding Kc. Table 1 below provides the Kd values of several GARFT inhibitors using the assay described above.

[2] = tested on: MTAP-competent NCI-H460 cells; assay: MTT growth inhibition by Compound 1 or 3 with and without MTA; format: cell-based, human; conditions: FIG. 7
Experimental: Cells were plated in columns 2-12 of a 96-well microtiter plate, with column 2 designated as the vehicle control. The same volume of medium was added to column 1. Column 1 was designated as the media control. After a 4-hour incubation, the cells were treated with Compound 7, with or without a non-growth inhibitory concentration of MTA, in quadruplicate wells. […] MTT (4,5-dimethylthiazol-2-yl)-2,5-diphenyl tetrazolium bromide; Sigma, St. Louis, Mo.) was added to a final concentration of 0.25-1 mg/ml in each well, and the plates were incubated for 4 hours. The liquid was removed from each well. DMSO was added to each well, then the plates were vortexed slowly in the dark for 7-20 minutes. The formazin product was quantified spectrophotometrically at […] on a Molecular Devices Vmax™ kinetic microplate reader.

Human MTAP = molecular target: T2, Human MTAP (Homo sapiens, UniProt Q13126); assay: MTAP substrate assay, coupled spectrophotometric (adenine, xanthine oxidase); format: biochemical; conditions: 2 nM MTAP; for activity at 50 µM: 10 min, read-out: MT-A—50: initial velocity as a percentage of the initial velocity with MTA as substrate; for MT-A—10: initial velocity as a percentage of the initial velocity with MTA as substrate: compound 10 uM, relative to MTA at 10 uM
T2 construct: six-histidine tag (His6) (N); made in house; host or cells: E. coli BL21 DE3
T2 sequence (Q13126 1-283): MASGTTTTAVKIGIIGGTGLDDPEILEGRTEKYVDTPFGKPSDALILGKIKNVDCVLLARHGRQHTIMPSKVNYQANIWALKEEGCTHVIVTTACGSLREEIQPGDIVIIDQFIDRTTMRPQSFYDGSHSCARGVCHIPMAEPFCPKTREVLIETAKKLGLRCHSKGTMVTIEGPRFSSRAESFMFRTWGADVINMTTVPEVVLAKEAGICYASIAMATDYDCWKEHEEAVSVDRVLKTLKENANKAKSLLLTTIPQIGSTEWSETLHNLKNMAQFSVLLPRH
Summary of the method: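 Detection was xanthine oxidase-coupled (0.8 units/ml), reading adenine-derived absorbance at 305 nm over 10 min in potassium phosphate/DTT buffer at 37° C, with N-His6 enzyme purified from E. coli.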

AICARFT = molecular target: T3, AICARFT (Homo sapiens, UniProt P31939); conditions: cited from earlier work
T3 construct: the catalytic domain of the human enzyme and its substrate (i.e., GARFT and GAR, or AICARFT and AICAR)
T3 sequence (P31939 199-592 limits assumed): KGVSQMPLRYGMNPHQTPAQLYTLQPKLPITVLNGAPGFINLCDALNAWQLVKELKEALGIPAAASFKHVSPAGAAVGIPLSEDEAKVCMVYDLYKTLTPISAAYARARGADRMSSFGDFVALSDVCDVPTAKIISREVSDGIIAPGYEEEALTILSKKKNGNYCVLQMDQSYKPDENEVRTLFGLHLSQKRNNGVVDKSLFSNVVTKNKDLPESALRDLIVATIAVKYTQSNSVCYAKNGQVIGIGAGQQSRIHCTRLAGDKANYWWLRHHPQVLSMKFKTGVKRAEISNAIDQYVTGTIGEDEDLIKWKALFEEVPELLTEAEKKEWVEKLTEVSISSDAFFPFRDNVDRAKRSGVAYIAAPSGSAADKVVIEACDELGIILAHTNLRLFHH

[3] = tested on: BxPC-3 cells transfected with the MTAP gene; assay: colony formation cytotoxicity, 6 h drug exposure; format: cell-based, human; conditions: 1.5 μM Compound 7 with 50 μM anti-toxicity agent, FIG. 5a
Experimental: (§1) Cytoxicity data was collected using BxPC-3, PANC-1 and HT-1080 cells which were cultured in Iscove's medium supplemented with 10% dialyzed, horse serum, 5% nonessential amino acids and 5% sodium pyruvate.
(§2) Mid-log-phase cells were trypsinized and placed in 60 mm tissue culture dishes at 200 or 250 cells per dish. Cells from each cell line were left to attach for 4 hours and then were treated with Compound 7, with or without MTA or dcSAMe, in 5-fold serial dilutions for 6 or 24 hours. For data shown in FIGS. 5a and 5b, cells were exposed to drug(s) for 6 hours only. For data shown in FIG. 6, cells were exposed to Compound 7 for 24 hours and to MTA continuously for the duration of colony growth (i.e. 24 hours and thereafter). Cells were next washed with PBS, and then fixed and stained with 1% w/v crystal violet in 25% methanol (Sigma, St. Louis, Mo.). After washing the dishes 2-3 times. with deionized water, the colonies were counted. Triplicate dishes were used for each drug concentration.

MTAP-deficient BxPC-3 = assay: colony formation cytotoxicity, 6 h drug exposure; format: cell-based, human; conditions: Compound 7 with 50 μM anti-toxicity agent, FIG. 5b
Experimental: as §1, §2

[4] = compound 50 uM, relative to MTA at 50 uM

T1 sequence (P15328 25-234): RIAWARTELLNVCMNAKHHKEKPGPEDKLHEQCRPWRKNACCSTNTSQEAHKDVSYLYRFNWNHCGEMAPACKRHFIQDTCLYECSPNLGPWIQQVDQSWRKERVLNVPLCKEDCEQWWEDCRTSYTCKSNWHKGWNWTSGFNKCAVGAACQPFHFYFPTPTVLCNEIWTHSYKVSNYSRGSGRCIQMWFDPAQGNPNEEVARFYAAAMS

Molecule | activity at 50 µM (Human MTAP; [4]) | MT-A—10: initial velocity as a percentage of the initial velocity with MTA as substrate (Human MTAP) | other results
Cc1cc(C(=O)N[C@@H](CCC(=O)O)C(=O)O)sc1CC[C@H]1CNc2nc(N)[nH]c(=O)c2S1 (single isomer, unassigned) [Compound 3] |  |  | Kd [1]: 0.0042 nM; factor by which MTA reduced the growth inhibitory activity [2]: greater than 5
Cc1nc(SC[C@H]2O[C@@H](n3cnc4c(N)ncnc43)[C@H](O)[C@@H]2O)nc(O)c1C [2(G)(158), (2R, 3R, 4S, 5S)-2-(6-amino-9H-purin-9-yl)-5-{[(4-hydroxy-5,6-dimethylpyrimidin-2-yl)-thio]methyl}tetrahydro-furan-3,4-diol] | 43.5% | 7% | 
NC(=O)CSC[C@H]1O[C@@H](n2cnc3c(N)ncnc32)[C@H](O)[C@@H]1O [2(G)(159), 2-({[(2S, 3S, 4R, 5R)-5-(6-amino-9H-purin-9-yl)-3,4-dihydroxytetrahydro-furan-2-yl)methyl}thio)-acetamide] | 28% | 7.5% | 
Nc1ncnc2c1ncn2[C@@H]1O[C@H](CSc2nccn2Cc2ccccc2)[C@@H](O)[C@H]1O [2(G)(160), (2R, 3R, 4S, 5S)-2-(6-amino-9H-purin-9-yl)-5-{[(1-benzyl-1H-imidazol-2-yl)thio]methyl}tetra-hydrofuran-3,4-diol] | 17% | 12% | 
CNC(=O)c1ccccc1SC[C@H]1O[C@@H](n2cnc3c(N)ncnc32)[C@H](O)[C@@H]1O [2(G)(161), 2-({[(2S, 3S, 4R, 5R)-5-(6-amino-9H-purin-9-yl)-3,4-dihydroxytetrahydro-furan-2-yl]methyl}thio)-N-methylbenzamide] | 28% | 14.5% | 
CCCc1cc(O)nc(SC[C@H]2O[C@@H](n3cnc4c(N)ncnc43)[C@H](O)[C@@H]2O)n1 [2(G)(162), (2R, 3R, 4S, 5S)-2-(6-amino-9H-purin-9-yl)-5-{[(4-hydroxy-6-propylpyrimidin-2-yl)-thio]methyl}tetrahydro-furan-3,4-diol] | 39.5% | 29% | 
Nc1ncnc2c1ncn2[C@@H]1O[C@H](CSc2nc3cc(Cl)ccc3o2)[C@@H](O)[C@H]1O [2(G)(163), (2R, 3R, 4S, 5S)-2-(6-amino-9H-purin-9-yl)-5-{[(5-chloro-1,3-benz-oxazol-2-yl)thio]methyl}-tetrahydrofuran-3,4-diol] | 26.5% | 12% | 
COC(=O)c1cnc(SC[C@H]2O[C@@H](n3cnc4c(N)ncnc43)[C@H](O)[C@@H]2O)n1C [2(G)(164), Methyl 2-({[(2S, 3S, 4R, 5R)-5-(6-amino-9H-purin-9-yl)-3,4-dihydroxy-tetrahydrofuran-2-yl]methyl}thio)-1-methyl-1H-imidazole-5-carboxylate] | 29% | 13.5% | 
CC(C)(C)c1cc(O)nc(SC[C@H]2O[C@@H](n3cnc4c(N)ncnc43)[C@H](O)[C@@H]2O)n1 [2(G)(165), (2R, 3R, 4S, 5S)-2-(6-amino-9H-purin-9-yl)-5-{[(4-tert-butyl-6-hydroxypyrimidin-2-yl)thio]methyl}tetrahydro-furan-3,4-diol] | 33.5% | 25% | 
Nc1nc(N)c(SCCc2ccc(C(=O)N[C@@H](CCC(=O)O)C(=O)O)s2)c(=O)[nH]1 [Compound 1, N-[5-(2[(2,6-diamino-4(3H)-oxopyrimidin5yl)thio]ethyl)thieno-2-yl]-L-glutamic acid] |  |  | Ki (specific inhibitor of AICARFT) (AICARFT): micromolar; factor by which MTA reduced the growth inhibitory activity [2]: 3
Cc1cc(C(=O)N[C@@H](CCC(=O)O)C(=O)O)sc1CCCSc1c(N)nc(N)[nH]c1=O [Compound 2] |  |  | Kd [1]: 136 nM
Cc1cc(C(=O)N[C@@H](CCC(=O)O)C(=O)O)sc1CC[C@@H]1CNc2nc(N)[nH]c(=O)c2S1 [Compound 4, 4-[2-(2-Amino-4-oxo-4,6,7,8-tetraydro-3H-pyrimido[5,4-b][1,4]thiazin-6-yl)-(R)-ethyl]-3-methyl-2-thienoyl-5-amino-L-glutamic acid] |  |  | Kd [1]: 1 nM
Cc1cc(C(=O)N[C@@H](CCC(=O)O)C(=O)O)sc1CC[C@H]1CNc2nc(N)[nH]c(=O)c2S1 [Compound 5, 4-[2-(2-Amino-4-oxo-4,6,7,8-tetrahydro-3H-pyrimido[5,4-b][1,4]thiazin-6-yl)-(S)-ethyl]-3-methyl-2-thienoyl-5-amino-L-glutamic acid] |  |  | Kd [1]: 0.71 nM
C[S+](CCCN)CC1OC(n2cnc3c(N)ncnc32)C(O)C1O (stereo not drawn) [dcSAMe, decarboxylated S-adenosylmethionine] |  |  | cell survival [3]: 100%; effect on cell survival (MTAP-deficient BxPC-3): increased cell survival by less than observed for the MTAP competent cells
(2R, 3R, 4S, 5S)-2-(6- amino-9H-purin-9-yl)-5- {[(5-chloro-1H- yl)thio]methyl}tetrahydro- furan-3,4-diol [2(G)(5)] |  | 5% | MT-A—50: initial velocity as a percentage of the initial velocity with MTA as substrate (Human MTAP; [4]): 2%
